Measured values taken from ChEMBL document CHEMBL4477225, “Development of a cell viability assay to assess drug metabolite structure-toxicity relationships” (Bioorg Med Chem Lett, 2016).

Assays:
Settings in all cases: recombinant enzyme
[1] = molecular target: T1, Cytochrome P450 3A4 (Homo sapiens, UniProt P08684); test: (§1) Drug activation in human Hep3B cells assessed as human CYP3A4-mediated drug metabolism-induced cytotoxicity measured as decrease in cell viability at 242.9 uM pre-incubated with BSO for 18 hrs followed by incubation with compound for 3 hrs in presence of NADPH measured after 24 hrs in absence of compound, CYP3A4 and NADPH by cell titer-glo luminescence assay relative to BSO alone; format: ADME, cell-based
[2] = molecular target: T2, Cytochrome P450 2C9 (Homo sapiens, UniProt P11712); test: as §1, with “CYP2C9-mediated” for “CYP3A4-mediated”, “300” for “242.9”
[3] = molecular target: T3, Cytochrome P450 2D6 (Homo sapiens, UniProt P10635); test: as §1, with “CYP2D6-mediated” for “CYP3A4-mediated”, “139.7” for “242.9”; format: ADME, cell-based
[4] = molecular target: T3, Cytochrome P450 2D6; test: as §1, with “CYP2D6-mediated” for “CYP3A4-mediated”, “114.4” for “242.9”; format: ADME, cell-based
[5] = molecular target: T1, Cytochrome P450 3A4; test: as §1, with “137.9” for “242.9”; format: ADME, cell-based
[6] = molecular target: T1, Cytochrome P450 3A4; test: as §1, with “36.8” for “242.9”; format: ADME, cell-based
[7] = molecular target: T2, Cytochrome P450 2C9; test: as §1, with “CYP2C9-mediated” for “CYP3A4-mediated”, “139.9” for “242.9”; format: ADME, cell-based
[8] = molecular target: T3, Cytochrome P450 2D6; test: as §1, with “CYP2D6-mediated” for “CYP3A4-mediated”, “194” for “242.9”; format: ADME, cell-based
[9] = molecular target: T3, Cytochrome P450 2D6; test: as §1, with “CYP2D6-mediated” for “CYP3A4-mediated”, “78.6” for “242.9”; format: ADME, cell-based
[10] = molecular target: T1, Cytochrome P450 3A4; test: as §1, with “90.1” for “242.9”; format: ADME, cell-based
[11] = molecular target: T1, Cytochrome P450 3A4; test: as §1, with “242.9 uM” left out; format: ADME, cell-based
[12] = molecular target: T3, Cytochrome P450 2D6; test: as §1, with “CYP2D6-mediated” for “CYP3A4-mediated”, “3.2” for “242.9”; format: ADME, cell-based
[13] = molecular target: T2, Cytochrome P450 2C9; test: as §1, with “CYP2C9-mediated” for “CYP3A4-mediated”, “12.1” for “242.9”; format: ADME, cell-based
[14] = molecular target: T3, Cytochrome P450 2D6; test: as §1, with “CYP2D6-mediated” for “CYP3A4-mediated”, “80.4” for “242.9”; format: ADME, cell-based
[15] = molecular target: T1, Cytochrome P450 3A4; test: as §1, with “68” for “242.9”; format: ADME, cell-based
[16] = molecular target: T2, Cytochrome P450 2C9; test: as §1, with “CYP2C9-mediated” for “CYP3A4-mediated”, “70.1” for “242.9”; format: ADME, cell-based
[17] = molecular target: T3, Cytochrome P450 2D6; test: as §1, with “CYP2D6-mediated” for “CYP3A4-mediated”, “12.9” for “242.9”; format: ADME, cell-based
[18] = molecular target: T1, Cytochrome P450 3A4; test: as §1, with “8.7” for “242.9”; format: ADME, cell-based
[19] = molecular target: T3, Cytochrome P450 2D6; test: as §1, with “CYP2D6-mediated” for “CYP3A4-mediated”, “193.1” for “242.9”; format: ADME, cell-based
[20] = molecular target: T1, Cytochrome P450 3A4; test: as §1, with “83.8” for “242.9”; format: ADME, cell-based
[21] = molecular target: T2, Cytochrome P450 2C9; test: as §1, with “CYP2C9-mediated” for “CYP3A4-mediated”, “36.8” for “242.9”; format: ADME, cell-based
[22] = molecular target: T3, Cytochrome P450 2D6; test: as §1, with “CYP2D6-mediated” for “CYP3A4-mediated”, “44.4” for “242.9”; format: ADME, cell-based
[23] = molecular target: T1, Cytochrome P450 3A4; test: as §1, with “25.3” for “242.9”; format: ADME, cell-based
[24] = molecular target: T3, Cytochrome P450 2D6; test: as §1, with “CYP2D6-mediated” for “CYP3A4-mediated”, “65.4” for “242.9”; format: ADME, cell-based
[25] = molecular target: T1, Cytochrome P450 3A4; test: as §1, with “56.4” for “242.9”; format: ADME, cell-based
[26] = molecular target: T3, Cytochrome P450 2D6; test: as §1, with “CYP2D6-mediated” for “CYP3A4-mediated”, “5.8” for “242.9”; format: ADME, cell-based
[27] = molecular target: T1, Cytochrome P450 3A4; test: as §1, with “22.2” for “242.9”; format: ADME, cell-based
[28] = molecular target: T1, Cytochrome P450 3A4; test: as §1, with “150.3” for “242.9”; format: ADME, cell-based
[29] = molecular target: T3, Cytochrome P450 2D6; test: as §1, with “CYP2D6-mediated” for “CYP3A4-mediated”, “7” for “242.9”; format: ADME, cell-based
[30] = molecular target: T1, Cytochrome P450 3A4; test: as §1, with “300” for “242.9”
[31] = molecular target: T3, Cytochrome P450 2D6; test: as §1, with “CYP2D6-mediated” for “CYP3A4-mediated”, “264.7” for “242.9”; format: ADME, cell-based
[32] = molecular target: T3, Cytochrome P450 2D6; test: as §1, with “CYP2D6-mediated” for “CYP3A4-mediated”, “8.9” for “242.9”; format: ADME, cell-based
[33] = molecular target: T1, Cytochrome P450 3A4; test: as §1, with “209.7” for “242.9”; format: ADME, cell-based
[34] = molecular target: T3, Cytochrome P450 2D6; test: as §1, with “CYP2D6-mediated” for “CYP3A4-mediated”, “156.7” for “242.9”; format: ADME, cell-based
[35] = molecular target: T3, Cytochrome P450 2D6; test: as §1, with “CYP2D6-mediated” for “CYP3A4-mediated”, “300” for “242.9”
[36] = molecular target: T1, Cytochrome P450 3A4; test: as §1, with “6.5” for “242.9”; format: ADME, cell-based
[37] = molecular target: T1, Cytochrome P450 3A4; test: as §1, with “131.8” for “242.9”; format: ADME, cell-based
[38] = molecular target: T3, Cytochrome P450 2D6; test: as §1, with “CYP2D6-mediated” for “CYP3A4-mediated”, “132.2” for “242.9”; format: ADME, cell-based
[39] = molecular target: T3, Cytochrome P450 2D6; test: as §1, with “CYP2D6-mediated” for “CYP3A4-mediated”, “17.6” for “242.9”; format: ADME, cell-based
[40] = molecular target: T1, Cytochrome P450 3A4; test: as §1, with “69.6” for “242.9”; format: ADME, cell-based

T3 sequence (P10635 whole entry): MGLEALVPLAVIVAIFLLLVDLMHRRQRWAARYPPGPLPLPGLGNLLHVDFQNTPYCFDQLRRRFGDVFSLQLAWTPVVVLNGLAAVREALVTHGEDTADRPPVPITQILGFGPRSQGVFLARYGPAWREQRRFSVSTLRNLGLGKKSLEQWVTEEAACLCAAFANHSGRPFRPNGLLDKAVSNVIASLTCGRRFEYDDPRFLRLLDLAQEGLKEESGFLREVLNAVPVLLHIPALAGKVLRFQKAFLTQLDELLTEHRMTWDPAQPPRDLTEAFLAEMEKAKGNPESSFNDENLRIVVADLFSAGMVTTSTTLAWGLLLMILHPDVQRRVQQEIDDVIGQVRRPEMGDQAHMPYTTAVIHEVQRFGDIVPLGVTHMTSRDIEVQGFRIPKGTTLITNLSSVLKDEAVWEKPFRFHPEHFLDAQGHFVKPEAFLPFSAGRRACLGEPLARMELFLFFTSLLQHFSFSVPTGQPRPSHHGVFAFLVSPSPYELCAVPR
T2 sequence (P11712 whole entry): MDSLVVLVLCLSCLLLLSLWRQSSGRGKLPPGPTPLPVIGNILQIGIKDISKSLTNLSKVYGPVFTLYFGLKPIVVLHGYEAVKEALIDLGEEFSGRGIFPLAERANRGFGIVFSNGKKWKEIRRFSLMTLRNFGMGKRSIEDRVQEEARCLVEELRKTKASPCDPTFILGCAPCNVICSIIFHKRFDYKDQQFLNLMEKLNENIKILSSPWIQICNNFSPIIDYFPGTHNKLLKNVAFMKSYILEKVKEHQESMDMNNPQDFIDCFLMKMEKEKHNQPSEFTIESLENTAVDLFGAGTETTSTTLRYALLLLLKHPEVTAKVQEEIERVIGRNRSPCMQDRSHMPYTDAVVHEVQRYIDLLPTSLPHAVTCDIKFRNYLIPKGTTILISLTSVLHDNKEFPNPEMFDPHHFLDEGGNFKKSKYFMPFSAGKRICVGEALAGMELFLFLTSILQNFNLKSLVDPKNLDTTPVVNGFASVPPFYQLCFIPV
T1 sequence (P08684 whole entry): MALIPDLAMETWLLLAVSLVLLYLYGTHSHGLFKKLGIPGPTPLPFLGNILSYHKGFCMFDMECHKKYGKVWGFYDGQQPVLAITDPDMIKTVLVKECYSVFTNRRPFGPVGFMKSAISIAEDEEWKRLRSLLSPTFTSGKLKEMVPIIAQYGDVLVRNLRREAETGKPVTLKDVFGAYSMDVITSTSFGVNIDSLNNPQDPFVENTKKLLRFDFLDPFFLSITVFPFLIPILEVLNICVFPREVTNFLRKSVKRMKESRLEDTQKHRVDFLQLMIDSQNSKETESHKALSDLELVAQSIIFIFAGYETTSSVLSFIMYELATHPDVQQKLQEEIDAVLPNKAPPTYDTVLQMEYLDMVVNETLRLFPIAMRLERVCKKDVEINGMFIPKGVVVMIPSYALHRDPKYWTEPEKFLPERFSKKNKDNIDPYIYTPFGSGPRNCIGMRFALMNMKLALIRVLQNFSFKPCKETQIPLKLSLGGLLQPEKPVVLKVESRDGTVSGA

Cc1nc(-c2ccc(OCC(C)C)c(C#N)c2)sc1C(=O)O [FEBUXOSTAT]
fold change (FC) [1]: 1.2
FC [2]: 1
fold change (FC) [3]: 2.1

CC(C)NNC(=O)c1ccncc1 [IPRONIAZID]
fold change (FC) [4]: 2.6
fold change (FC) [5]: 2.2
FC [2]: 1

CC(C)OC(=O)C(C)(C)Oc1ccc(C(=O)c2ccc(Cl)cc2)cc1 [FENOFIBRATE]
fold change (FC) [6]: 2.9
fold change (FC) [7]: 0.8
fold change (FC) [8]: 0.5

CNC(=C[N+](=O)[O-])NCCSCc1ccc(CN(C)C)o1 [RANITIDINE]
FC [2]: 1
fold change (FC) [9]: 3.8
fold change (FC) [10]: 3.3

C=C(CC)C(=O)c1ccc(OCC(=O)O)c(Cl)c1Cl [ETHACRYNIC ACID]
FC [11]: 3.7
fold change (FC) [12]: 2.7
fold change (FC) [13]: 0.7

CNCCC(Oc1ccc(C(F)(F)F)cc1)c1ccccc1 (stereo not given) [FLUOXETINE]
fold change (FC) [14]: 0.6
fold change (FC) [15]: 0.7
fold change (FC) [16]: 0.7

O=c1n(CCCN2CCN(c3cccc(Cl)c3)CC2)nc2ccccn12 [TRAZODONE]
fold change (FC) [17]: 23.2
FC [2]: 1
fold change (FC) [18]: 34.4

OC(CCN1CCCCC1)(c1ccccc1)C1CC2C=CC1C2 (stereo not given) [BIPERIDEN]
fold change (FC) [19]: 1.6
fold change (FC) [20]: 3.6

Clc1ccccc1C(c1ccccc1)(c1ccccc1)n1ccnc1 [CLOTRIMAZOLE]
fold change (FC) [21]: 1.1
fold change (FC) [22]: 0.9

CC/C(=C(\c1ccccc1)c1ccc(OCCN(C)C)cc1)c1ccccc1 [TAMOXIFEN]
fold change (FC) [23]: 0.8

CN(C)[C@@H]1C(O)=C(C(N)=O)C(=O)[C@@]2(O)C(O)=C3C(=O)c4c(O)cccc4[C@@](C)(O)[C@H]3C[C@@H]12 [TETRACYCLINE]
fold change (FC) [24]: 2.5
fold change (FC) [25]: 2.9

Cc1nc(C)c2c(n1)N(Cc1ccc(-c3ccccc3-c3nnn[nH]3)cc1)C(=O)CC2 [TASOSARTAN]
fold change (FC) [26]: 52
fold change (FC) [27]: 13.5
FC [2]: 1

CN(C)CCC(c1ccc(Br)cc1)c1ccccn1 (stereo not given) [BROMPHENIRAMINE]
fold change (FC) [28]: 2
FC [2]: 1
fold change (FC) [29]: 43

N[C@@H]1[C@H]2CN(c3nc4c(cc3F)c(=O)c(C(=O)O)cn4-c3ccc(F)cc3F)C[C@@H]12 [TROVAFLOXACIN]
FC [30]: 1
FC [2]: 1
fold change (FC) [31]: 1.1

CN(C)CCC(c1ccc(Cl)cc1)c1ccccn1 (stereo not given) [CHLORPHENIRAMINE]
FC [30]: 1
fold change (FC) [32]: 33.6
FC [2]: 1

O=C(COc1ccc(Cl)cc1)N1CCN(Cc2ccc3c(c2)OCO3)CC1 [FIPEXIDE]
fold change (FC) [33]: 0.6
FC [2]: 0.4
fold change (FC) [34]: 0.8

CC(CCc1ccccc1)NCC(O)c1ccc(O)c(C(N)=O)c1 (stereo not given) [LABETALOL]
FC [35]: 1
FC [2]: 1
fold change (FC) [36]: 46

C[N+](C)(C)CC(=O)O [BETAINE]
FC [35]: 1
FC [30]: 1
FC [2]: 1

CC(NC(C)(C)C)C(=O)c1cccc(Cl)c1 (stereo not given) [BUPROPION]
FC [35]: 1
FC [30]: 1
FC [2]: 1

CNC(=C[N+](=O)[O-])NCCSCc1csc(CN(C)C)n1 [NIZATIDINE]
FC [35]: 1
FC [30]: 1
FC [2]: 1

CNCCCN1c2ccccc2CCc2ccccc21 [DESIPRAMINE]
fold change (FC) [37]: 0.7
fold change (FC) [7]: 0.7
fold change (FC) [38]: 0.7

CC1(C)S[C@@H]2[C@H](NC(=O)[C@H](N)c3ccc(O)cc3)C(=O)N2[C@H]1C(=O)O [AMOXICILLIN]
FC [35]: 1
FC [30]: 1
FC [2]: 1

Cl.Nc1ccc(/N=N/c2ccccc2)c(N)n1 [PHENAZOPYRIDINE HYDROCHLORIDE]
fold change (FC) [39]: 17
FC [2]: 1
fold change (FC) [40]: 4.3

O=C(O)c1cc(-c2ccccc2)nc2ccccc12 [CINCHOPHEN]
FC [35]: 1
FC [30]: 1
FC [2]: 1

COC1=CC(=O)C[C@@H](C)[C@]12Oc1c(Cl)c(OC)cc(OC)c1C2=O [GRISEOFULVIN]
FC [35]: 1
FC [30]: 1
FC [2]: 1
